Results as given in patent publication EP2518139A1, “Use of indirubin derivatives for producing pluripotent stem cells” (Universitätsklinikum Jena, priority 2011, dated 2012).
Residues, ends and D or L forms follow the SMILES beside them. *: point of attachment. Cbz = O=C(OCc1ccccc1)*

What was measured:
[1] = system: BMP- and TGFß-relative R-Smads; assay: Immunoblot of BMP- and TGFß-relative R-Smads in HeLa cells (TGFß or FCS stimulation); assay type: cell-based, human; conditions: 24h, E738 (1µM), Bio (5µM), DM (1µM), Repsox (10µM); for P- and pan-Smads (R-Smads): TGFß (20ng/mL)
Smad1/5/8 = assay: Immunoblot of p-Smad1/5/8 and pan-Smad1/5/8 in HeLa cells; assay type: cell-based, human
p38 = conditions: reported by Zhu et al.; cited from earlier work
[2] = system: mono-, di- and poly-ubiquitins; assay: Immunoblot of ubiquitins in HeLa cells; assay type: cell-based, human; conditions: BMP-stimulated HeLa, 24h; MG132 5µM, E738 (1µM)
Description: Western blot:: Cell extracts were homogenized in Urea-Lysis buffer (1mM EDTA,0.5% Triton X-100), 5mM NaF, 6M Urea, 1mM Na3VO4, 10µg/mL Pepstatin, 100µM PMSF and 3µg/mL Aprotinin in PBS). Enhanced chemiluminescence (ECL) Western blot analysis was performed. 20-40µg of total protein was resolved on 10% SDS-PAGE gels and immunoblotted with specific antibodies. Primary antibodies were incubated at a 1:1,000 dilution in TBS (pH 7.5) with 0.1% Tween-20 and 5% BSA/nonfat milk with gentle agitation overnight at 4°C. The proper secondary antibodies were incubated in TBS (pH 7.5) with 5% BSA/nonfat milk and 0.1 % Tween-20 at a 1:5,000 dilution for 1 h at room temperature.
Ubiquitin-proteasome degradation system is the major route to protein degradation. To identify if indirubin-induced degradation is conducted by proteasome, we utilized MG132, a general proteasome inhibitor, to characterize the role of proteasome in degradation. We found 5µM MG132 was sufficient to rescue the E738 mediated Smad1/5/8 […] 24h after treatment (Fig. 5E and 5F). […] Thus we interpreted that E738 might be able to promote degradation of polymerased ubiquintins through activating the formation of complexes with certain substrates, speculatively like Smad1/2/3/5/8, leading to accelerate the recycling of mono-ubiquitin, while MG132 blocked the degradation of these complexes and arrest such recycling. […]

[3] = BMP2 (100ng/mL), 24h, compound at 5µM

Cc1cccc(-c2[nH]ncc2-c2ccc3ncccc3n2)n1 [Repsox]
activation of both types of R-Smads ([1]; FCS 10%): only partly | P- and pan-Smads (R-Smads) [1]: inhibited TGFß-mediated activation of Smad3, but not Smad1/5/8 or total R-Smads protein

C[S+]([O-])c1ccc(-c2nc(-c3ccncc3)c(-c3ccc(F)cc3)[nH]2)cc1 (stereo not shown) [SB203580, reference compound]
level of pan Smad1/5/8 (Smad1/5/8; BMP, MAPK inhibitor alone or in combination with E738): neither alter the level of pan Smad1/5/8 alone, nor attenuate the E738-mediated degradation in combination with E738

O=C1Nc2ccccc2/C1=C1/Nc2ccccc2/C1=N\O [E231, Indirubin-3'-oxim]
phosphorylation of p38 (p38): can stimulate the phosphorylation of p38 | p-Smad1/5/8 at C-termini and pan-Smad1/5/8 levels (Smad1/5/8; BMP2 (100ng/mL), 24h, compound at 1µM): slightly decreased | level of pan Smad1/5/8 (Smad1/5/8; [3]): induced the reduction only partly | phosphorylation (activation) of Smad1/5/8 (Smad1/5/8; [3]): strongly blocked the phosphorylation

O=C1Nc2cc(Br)ccc2/C1=C1/Nc2ccccc2/C1=N\O [BIO, 6-Bromo-indirubin-3'-oxim, reference compound]
level of pan Smad1/5/8 (Smad1/5/8; [3]): slightly decreased pan-Smad1/5/8 | phosphorylation (activation) of Smad1/5/8 (Smad1/5/8; [3]): clearly blocked the activation of Smad1/5/8 | P- and pan-Smads (R-Smads) [1]: attenuated effects

C[C@@H]1C[C@@H]([C@H](O)CC2CC(=O)NC(=O)C2)C(=O)[C@@H](C)C1 [CHX, cyclohexamide, reference compound]
signal of Smad1/5/8 (Smad1/5/8; BMP2, CHX (10µM), 24h): weaker signal of Smad1/5/8 | influence on the E738 induced degradation of Smad1/5/8 (Smad1/5/8; BMP2, mixture of E738 (1µM) and CHX 10µM, 24h): no influence on the degradation

[Cl-].[Li+] [LiCl, reference compound]
BMP activated Smad1/5/8 and level of pan Smad1/5/8 (Smad1/5/8; BMP, LiCl (30mM), 24h): can attenuate BMP activated Smad1/5/8, but not change the level of pan Smad1/5/8

CC(C)C[C@@H](C=O)NC(=O)[C@H](CC(C)C)NC(=O)[C@H](CC(C)C)NC(=O)OCc1ccccc1 [MG132, reference compound] (Cbz-Leu-Leu-Leu-aldehyde)
concentration sufficient to rescue the E738 mediated Smad1/5/8 ubiquitination (Smad1/5/8; BMP, 24h after treatment): 5 µM | p-Smad1/5/8 (Smad1/5/8; BMP, MG (5µM) with/without E738): accumulation of p-Smad1/5/8 was observed | mono-, di- and poly-ubiquitins [2]: significantly stabilized mono-, di- and poly-ubiquitins
